Assay: solvent given as SMILES

COC(C)=O
Settings | solvation free energy, 298 K [kcal/mol]
in C=CCCCCCCC=C | -3.23
in CC(=O)N(C)C | -3.82
in CC(C)=O | -4.12
in CC(C)CCCC(C)CCCC(C)CCCCC(C)CCCC(C)CCCC(C)C | -2.53
in CC(C)O | -3.36
in CCC1CO1 | -4.01
in CCCCC(CC)COC(=O)CCCCC(=O)OCC(CC)CCCC | -3.19
in CCCCCC | -2.93
in CCCCCCC | -2.78
in CCCCCCCC | -2.88
in CCCCCCCCC=CCCCCCCCC(=O)OCC(COC(=O)CCCCCCCC=CCCCCCCCC)OC(=O)CCCCCCCC=CCCCCCCCC | -3.22
in CCCCCCCCCC | -2.8
in CCCCCCCCCCCCCCCC | -2.63
in CCCCCCCCO | -3.15
in CCCCN(C=O)CCCC | -3.48
in CCOC(=O)c1ccccc1C(=O)OCC | -3.48
in CCOCCO | -3.69
in CCOP(=O)(OCC)OCC | -3.75
in CN1CCCC1=O | -3.72
in CN1CCCCC1=O | -3.72
in CN1CCN(C)C1=O | -3.55
in CN(C)C=O | -3.9
in CNC(C)=O | -3.62
in CO | -3.96
in COP(=O)(OC)OC | -3.94
in CS(C)=O | -3.53
in NC=O | -3.27
in O | -3.14
in O=CN1CCOCC1 | -3.58
in OCCOCCO | -3.32
in [2H]O[2H] | -3.17
in c1ccc2ncccc2c1 | -3.51

COC
Settings | solvation free energy, 298 K [kcal/mol]
in Brc1ccccc1 | -2.1
in CC(C)(C)O | -2.25
in CC(C)CCO | -1.99
in CC(C)CO | -2.1
in CC(C)O | -2.13
in CCC(C)(C)O | -2.22
in CCC(C)CO | -2.05
in CCC(C)O | -2.1
in CCC(O)CC | -2.18
in CCCC(C)O | -2.05
in CCCCCC | -1.79
in CCCCCCCCO | -1.87
in CCCCCO | -1.98
in CCCCO | -2.05
in CCCO | -2.1
in CN(C)C=O | -2.13
in CO | -2.31
in COC(C)=O | -2.33
in Cc1ccc(C)cc1 | -2.03
in Cc1cccc(C)c1 | -2.05
in Cc1ccccc1C | -2.04
in Clc1ccccc1 | -2.18
in Ic1ccccc1 | -2.03
in O | -1.91

Clc1ccc(-c2cc(Cl)ccc2Cl)cc1
Settings | solvation free energy, 298 K [kcal/mol]
in CCCCCCCCO | -10.8

O=C(Oc1ccccc1)c1ccccc1O
Settings | solvation free energy, 298 K [kcal/mol]
in CC(C)CO | -12.2
in CC(C)O | -12.2
in CCC(C)O | -12.5
in CCCCO | -12.4
in CCCO | -12.4
in CCO | -12.4
in CO | -12.5

Cc1cccc(C)n1
Settings | solvation free energy, 298 K [kcal/mol]
in CC(C)CC(C)(C)C | -5.29
in O | -4.59

c1ccc2c(c1)sc1ccccc12
Settings | solvation free energy, 298 K [kcal/mol]
in CC(=O)N(C)C | -11.5
in CCCCCCCCC=CCCCCCCCC(=O)OCC(COC(=O)CCCCCCCC=CCCCCCCCC)OC(=O)CCCCCCCC=CCCCCCCCC | -10.6
in CN1CCCC1=O | -11.6
in O | -4.05

CCCC1CCCC1
Settings | solvation free energy, 298 K [kcal/mol]
in O | 2.13

CC(C)CCCCCCCOC(=O)c1ccccc1C(=O)OCCCCCCCC(C)C
Settings | solvation free energy, 298 K [kcal/mol]
in O | -5.93

CC(=O)Oc1ccccc1
Settings | solvation free energy, 298 K [kcal/mol]
in O | -4.78

C1=CCCCCC1
Settings | solvation free energy, 298 K [kcal/mol]
in CN1CCCC1=O | -4.22
in CN(C)C=O | -4.23
in O | 0.7

CCC(C)(O)CC
Settings | solvation free energy, 298 K [kcal/mol]
in O | -4.2

C=C(C)C1CC=C(C)C(OC=O)C1 (stereo unspecified)
Settings | solvation free energy, 298 K [kcal/mol]
in O | -3.82

CCCBr
Settings | solvation free energy, 298 K [kcal/mol]
in C=CCCCCCCCCCCCCCC | -3.56
in ClC(Cl)(Cl)Cl | -4.17
in O | -0.56

OCCOCCOCCO
Settings | solvation free energy, 298 K [kcal/mol]
in CCCCCCC | -7.04

CCCCCCCC(=O)c1c(C)[nH]n(-c2ccccc2)c1=O
Settings | solvation free energy, 298 K [kcal/mol]
in O | -8.85

CCCCCCCCCCCCc1ccccc1
Settings | solvation free energy, 298 K [kcal/mol]
in CCC(C)=O | -11.5
in CCCCCCC | -11.8
in CCO | -10
in O=Cc1ccco1 | -10.4
in OCCOCCO | -7.69

CCCCOC(=O)c1ccccc1C(=O)OC(CC)CCCC (stereo unspecified)
Settings | solvation free energy, 298 K [kcal/mol]
in O | -6.71

CC(C)CC(C)(C)C
Settings | solvation free energy, 298 K [kcal/mol]
in C1CCOC1 | -4.65
in CC1CCS(=O)(=O)C1 | -2.59
in CC#N | -3.11
in CC(C)(C)O | -3.6
in CC(C)O | -3.68
in CC(C)OC(C)C | -4.57
in CCC(C)=O | -4.05
in CCCCCCCC | -4.53
in CCCCCCCCCCCCCCCC | -4.26
in CCCCCCCCCCO | -3.9
in CCCCCCO | -4.07
in CCCCCO | -3.89
in CCCCCl | -4.57
in CCCO | -3.67
in CCO | -3.84
in CN1CCCC1=O | -3.12
in CN(C)C=O | -3.18
in COC(C)(C)C | -4.65
in N#CCCOCCC#N | -1.86
in O | 2.92
in O=CN1CCOCC1 | -2.44
in OCCO | -1.05
in OCCOCCO | -1.78
in OCCOCCOCCO | -1.88
in OCCS | -2.36

CCN(CC)N=O
Settings | solvation free energy, 298 K [kcal/mol]
in CC(C)CC(C)(C)C | -5.28
in O | -5.46

Source: the CombiSolv-Exp solvation set (Vermeire and Green 2021)
